US20130040944A1, “MGLUR4 ALLOSTERIC POTENTIATORS, COMPOSITIONS, AND METHODS OF TREATING NEUROLOGICAL DYSFUNCTION” (VANDERBILT UNIVERSITY, priority 2009, published 2013)

Each compound was assayed against human mGluR4 (Homo sapiens, UniProt Q14833) (assay: potentiation of human mGluR4 in transfected CHO cells, Ca2+-sensitive dye fluorescence, EC20 agonist). Conditions: hEC50, human mGluR4 potentiation; unit inferred.
Chain of human mGluR4 (Q14833 33-912): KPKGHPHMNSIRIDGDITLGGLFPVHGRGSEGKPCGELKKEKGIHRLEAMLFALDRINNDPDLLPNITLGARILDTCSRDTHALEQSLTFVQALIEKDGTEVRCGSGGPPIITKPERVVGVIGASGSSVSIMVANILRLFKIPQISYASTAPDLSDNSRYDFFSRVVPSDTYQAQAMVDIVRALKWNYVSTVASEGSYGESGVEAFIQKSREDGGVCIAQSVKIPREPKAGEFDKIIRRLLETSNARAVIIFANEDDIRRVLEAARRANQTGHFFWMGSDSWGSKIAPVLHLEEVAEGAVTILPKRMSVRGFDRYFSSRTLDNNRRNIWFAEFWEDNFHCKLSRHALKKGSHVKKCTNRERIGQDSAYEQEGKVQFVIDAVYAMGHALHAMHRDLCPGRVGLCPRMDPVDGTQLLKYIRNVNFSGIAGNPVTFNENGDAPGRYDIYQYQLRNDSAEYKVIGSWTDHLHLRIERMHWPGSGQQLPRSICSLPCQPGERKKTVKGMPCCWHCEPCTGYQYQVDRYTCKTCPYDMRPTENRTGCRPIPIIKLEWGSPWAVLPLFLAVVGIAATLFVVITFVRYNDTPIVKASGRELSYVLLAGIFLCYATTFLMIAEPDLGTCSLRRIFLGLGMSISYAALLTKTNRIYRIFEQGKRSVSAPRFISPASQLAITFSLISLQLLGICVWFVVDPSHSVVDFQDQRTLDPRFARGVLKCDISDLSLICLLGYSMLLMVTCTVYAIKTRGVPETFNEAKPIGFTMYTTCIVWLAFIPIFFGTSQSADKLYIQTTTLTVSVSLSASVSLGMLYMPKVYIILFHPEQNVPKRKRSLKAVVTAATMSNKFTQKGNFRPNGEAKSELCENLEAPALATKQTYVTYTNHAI

Row | SMILES | EC50
1 | Cc1cccc(Cl)c1S(=O)(=O)n1ccc(NC(=O)c2ccccn2)c1 [Example 76, N-(1-((2-chloro-6-methylphenyl)sulfonyl)-1H-pyrrol-3-yl)picolinamide] | 988 nM
2 | COc1ccccc1S(=O)(=O)n1ccc(NC(=O)c2ccccn2)c1 [Example 72, N-(1-((2-methoxyphenyl)sulfonyl)-1H-pyrrol-3-yl)picolinamide] | 2060 nM
3 | O=C(Nc1ccn(S(=O)(=O)c2ccc(F)c(F)c2)c1)c1ccccn1 [Example 59, N-(1-((3,4-difluorophenyl)sulfonyl)-1H-pyrrol-3-yl)picolinamide] | 379 nM
4 | O=C(Nc1ccn(S(=O)(=O)Cc2ccccc2Cl)c1)c1ccc(Cl)cn1 [Example 86, 5-chloro-N-(1-((2-chlorobenzyl)sulfonyl)-1H-pyrrol-3-yl)picolinamide] | 7220 nM
5 | O=C(Nc1ccn(S(=O)(=O)c2ccc(F)c(F)c2)c1)c1nccs1 [Example 80, N-(1-((3,4-difluorophenyl)sulfonyl)-1H-pyrrol-3-yl)thiazole-2-carboxamide] | 1270 nM
6 | O=C(Nc1ccn(S(=O)(=O)Cc2c(Cl)cccc2Cl)c1)c1ccccn1 [Example 98, N-(1-((2,6-dichlorobenzyl)sulfonyl)-1H-pyrrol-3-yl)picolinamide] | 119 nM

The next lines start with the values.

Row | EC50 | SMILES
7 | 1490 nM | O=C(Nc1ccn(S(=O)(=O)c2ccoc2)c1)c1ccccn1 [Example 125, N-(1-(furan-3-ylsulfonyl)-1H-pyrrol-3-yl)picolinamide]
8 | 226 nM | O=C(Nc1ccn(S(=O)(=O)c2cc(F)c(F)cc2F)c1)c1ccccn1 [Example 110, N-(1-((2,4,5-trifluorophenyl)sulfonyl)-1H-pyrrol-3-yl)picolinamide]
9 | 158 nM | O=C(Nc1ccn(S(=O)(=O)c2cc(F)c(F)cc2Cl)c1)c1ccccn1 [Example 107, N-(1-((2-chloro-4,5-difluorophenyl)sulfonyl)-1H-pyrrol-3-yl)picolinamide]
10 | 413 nM | O=C(Nc1ccn(S(=O)(=O)c2ccsc2)c1)c1ccccn1 [Example 132, N-(1-(thiophen-3-ylsulfonyl)-1H-pyrrol-3-yl)picolinamide]
11 | 701 nM | COc1ccc(S(=O)(=O)n2ccc(NC(=O)c3ccco3)c2)cc1 [Example 164, N-(1-((4-methoxyphenyl)sulfonyl)-1H-pyrrol-3-yl)furan-2-carboxamide]
12 | 45.3 nM | O=C(Nc1ccn(S(=O)(=O)c2ccc3c(c2)OCCO3)c1)c1ccccn1 [Example 156, N-(1-((2,3-dihydrobenzo[b][1,4]dioxin-6-yl)sulfonyl)-1H-pyrrol-3-yl)picolinamide]
13 | 8320 nM | Cc1noc(C)c1S(=O)(=O)n1ccc(NC(=O)c2ccccn2)c1 [Example 141, N-(1-((3,5-dimethylisoxazol-4-yl)sulfonyl)-1H-pyrrol-3-yl)picolinamide]
